Laboratory results taken from ChEMBL document CHEMBL1201862, “PubChem BioAssay data set” (2004).
Activity calls are given as the source filed them.

Experiments:
INS1 = experiment: INS-1E survival protection against cytokine death – cell-based, luminescence, retest, dose response (AID 449756); type: functional; conditions: Rattus norvegicus;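 also: cell death triggered by IL-1 beta plus TNF-alpha plus IFN-gamma mixture; protective hits raise ATP signal compared with cytokine alone wells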
Beta-galactosidase = Beta-galactosidase (Escherichia coli, UniProt Q8VNN2); experiment: Dose response counterscreen for EBI2 assay utilizing the enzyme, b-galactosidase.; type: functional
Sequence of Beta-galactosidase (Q8VNN2 whole entry): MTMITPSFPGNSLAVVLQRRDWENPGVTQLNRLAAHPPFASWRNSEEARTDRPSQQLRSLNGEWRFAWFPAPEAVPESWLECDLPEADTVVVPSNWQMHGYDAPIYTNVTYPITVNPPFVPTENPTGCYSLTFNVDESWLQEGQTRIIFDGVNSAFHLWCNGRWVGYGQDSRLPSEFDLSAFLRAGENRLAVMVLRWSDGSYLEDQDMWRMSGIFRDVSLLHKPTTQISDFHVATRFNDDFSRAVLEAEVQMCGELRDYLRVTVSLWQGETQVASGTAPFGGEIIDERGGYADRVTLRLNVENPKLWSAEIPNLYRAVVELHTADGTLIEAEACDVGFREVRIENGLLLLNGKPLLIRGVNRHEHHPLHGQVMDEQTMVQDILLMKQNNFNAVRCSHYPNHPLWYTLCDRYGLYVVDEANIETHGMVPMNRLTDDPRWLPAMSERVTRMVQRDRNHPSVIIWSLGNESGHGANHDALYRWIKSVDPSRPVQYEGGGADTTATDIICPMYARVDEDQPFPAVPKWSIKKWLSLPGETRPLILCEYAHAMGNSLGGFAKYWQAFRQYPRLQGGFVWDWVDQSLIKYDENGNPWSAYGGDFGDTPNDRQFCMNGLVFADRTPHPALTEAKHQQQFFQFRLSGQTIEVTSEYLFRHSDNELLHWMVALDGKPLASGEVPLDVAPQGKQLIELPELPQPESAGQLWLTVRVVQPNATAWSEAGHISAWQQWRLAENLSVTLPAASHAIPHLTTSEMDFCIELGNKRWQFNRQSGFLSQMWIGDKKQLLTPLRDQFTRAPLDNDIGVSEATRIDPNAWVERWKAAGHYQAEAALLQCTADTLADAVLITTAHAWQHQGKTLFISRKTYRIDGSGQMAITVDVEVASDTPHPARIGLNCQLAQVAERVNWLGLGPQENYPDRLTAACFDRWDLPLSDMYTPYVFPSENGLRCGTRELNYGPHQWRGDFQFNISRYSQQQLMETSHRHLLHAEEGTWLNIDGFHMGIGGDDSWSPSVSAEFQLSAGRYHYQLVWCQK

[1] = HGIII-sPLA2 enzyme inhibition potency – biochemical, QFRET, IC50, dose response (AID 743457);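 also: green fluorescence rise as the enzyme cleaves BODIPY PC-A2 in liposomes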
[2] = biological target: T1, Sentrin-specific protease 8 (Homo sapiens, UniProt Q96LD8); type: functional
T1 sequence (Q96LD8 whole entry): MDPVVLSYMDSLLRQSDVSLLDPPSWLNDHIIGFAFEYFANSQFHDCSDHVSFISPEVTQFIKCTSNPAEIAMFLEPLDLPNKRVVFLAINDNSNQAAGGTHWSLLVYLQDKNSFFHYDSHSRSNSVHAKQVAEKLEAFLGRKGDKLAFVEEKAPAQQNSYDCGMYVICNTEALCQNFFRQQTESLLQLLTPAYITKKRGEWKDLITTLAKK

[3] = biological target: T2, Probable nicotinate-nucleotide adenylyltransferase (Staphylococcus aureus (strain N315), UniProt P65502); type: functional, Staphylococcus aureus subsp. aureus N315; conditions: read-out: IC50_Mean;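 as to IC50 Mean: confirmatory dose-response retesting of NadD inhibitor hits first found in an ultra-high-throughput screen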
T2 sequence (P65502 whole entry): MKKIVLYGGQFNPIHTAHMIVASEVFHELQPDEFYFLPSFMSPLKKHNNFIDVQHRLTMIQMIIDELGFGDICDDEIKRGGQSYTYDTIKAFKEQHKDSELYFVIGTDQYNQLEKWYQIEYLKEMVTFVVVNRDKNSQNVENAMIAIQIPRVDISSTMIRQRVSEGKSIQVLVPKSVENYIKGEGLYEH

[4] = biological target: T3, Apoptotic protease-activating factor 1 (Homo sapiens, UniProt O14727); type: functional
T3 sequence (O14727 whole entry): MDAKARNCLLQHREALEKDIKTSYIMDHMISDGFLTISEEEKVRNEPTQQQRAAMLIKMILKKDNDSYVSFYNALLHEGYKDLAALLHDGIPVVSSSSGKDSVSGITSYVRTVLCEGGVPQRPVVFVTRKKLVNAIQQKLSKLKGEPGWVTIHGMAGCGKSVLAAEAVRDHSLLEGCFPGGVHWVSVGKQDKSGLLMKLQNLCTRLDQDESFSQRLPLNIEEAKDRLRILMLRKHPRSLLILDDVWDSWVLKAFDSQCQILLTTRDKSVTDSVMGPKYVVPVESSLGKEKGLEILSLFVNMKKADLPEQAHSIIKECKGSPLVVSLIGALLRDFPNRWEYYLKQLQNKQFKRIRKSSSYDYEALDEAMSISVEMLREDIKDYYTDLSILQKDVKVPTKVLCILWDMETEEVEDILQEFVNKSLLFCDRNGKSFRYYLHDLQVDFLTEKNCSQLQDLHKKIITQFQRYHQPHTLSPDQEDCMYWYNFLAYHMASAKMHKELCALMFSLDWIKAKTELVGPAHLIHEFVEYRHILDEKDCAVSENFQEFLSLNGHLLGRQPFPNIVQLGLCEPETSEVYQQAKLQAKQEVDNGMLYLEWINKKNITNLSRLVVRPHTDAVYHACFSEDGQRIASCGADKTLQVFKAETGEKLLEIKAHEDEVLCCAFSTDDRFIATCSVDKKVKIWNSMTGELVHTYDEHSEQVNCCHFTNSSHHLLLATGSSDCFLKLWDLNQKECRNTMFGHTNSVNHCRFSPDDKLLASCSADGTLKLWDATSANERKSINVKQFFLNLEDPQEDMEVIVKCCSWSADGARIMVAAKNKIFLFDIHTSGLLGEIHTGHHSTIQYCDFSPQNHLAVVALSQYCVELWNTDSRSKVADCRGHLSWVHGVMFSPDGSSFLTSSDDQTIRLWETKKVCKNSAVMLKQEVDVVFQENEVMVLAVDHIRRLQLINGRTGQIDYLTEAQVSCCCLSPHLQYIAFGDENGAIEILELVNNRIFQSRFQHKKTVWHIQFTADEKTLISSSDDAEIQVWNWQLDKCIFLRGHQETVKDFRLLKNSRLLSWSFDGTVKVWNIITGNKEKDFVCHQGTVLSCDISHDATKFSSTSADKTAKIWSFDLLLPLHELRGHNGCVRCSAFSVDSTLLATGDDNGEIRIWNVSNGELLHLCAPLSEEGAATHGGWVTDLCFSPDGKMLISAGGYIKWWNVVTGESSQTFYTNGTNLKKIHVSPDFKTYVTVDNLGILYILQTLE

[5] = biological target: T4, Lysine-specific demethylase 4C (Homo sapiens, UniProt Q9H3R0); experiment: inhibition of JMJD2C H3K9me3 demethylation – biochemical, DELFIA europium, cherry-picked samples, dose response (AID 488835); type: functional
T4 sequence (Q9H3R0 whole entry): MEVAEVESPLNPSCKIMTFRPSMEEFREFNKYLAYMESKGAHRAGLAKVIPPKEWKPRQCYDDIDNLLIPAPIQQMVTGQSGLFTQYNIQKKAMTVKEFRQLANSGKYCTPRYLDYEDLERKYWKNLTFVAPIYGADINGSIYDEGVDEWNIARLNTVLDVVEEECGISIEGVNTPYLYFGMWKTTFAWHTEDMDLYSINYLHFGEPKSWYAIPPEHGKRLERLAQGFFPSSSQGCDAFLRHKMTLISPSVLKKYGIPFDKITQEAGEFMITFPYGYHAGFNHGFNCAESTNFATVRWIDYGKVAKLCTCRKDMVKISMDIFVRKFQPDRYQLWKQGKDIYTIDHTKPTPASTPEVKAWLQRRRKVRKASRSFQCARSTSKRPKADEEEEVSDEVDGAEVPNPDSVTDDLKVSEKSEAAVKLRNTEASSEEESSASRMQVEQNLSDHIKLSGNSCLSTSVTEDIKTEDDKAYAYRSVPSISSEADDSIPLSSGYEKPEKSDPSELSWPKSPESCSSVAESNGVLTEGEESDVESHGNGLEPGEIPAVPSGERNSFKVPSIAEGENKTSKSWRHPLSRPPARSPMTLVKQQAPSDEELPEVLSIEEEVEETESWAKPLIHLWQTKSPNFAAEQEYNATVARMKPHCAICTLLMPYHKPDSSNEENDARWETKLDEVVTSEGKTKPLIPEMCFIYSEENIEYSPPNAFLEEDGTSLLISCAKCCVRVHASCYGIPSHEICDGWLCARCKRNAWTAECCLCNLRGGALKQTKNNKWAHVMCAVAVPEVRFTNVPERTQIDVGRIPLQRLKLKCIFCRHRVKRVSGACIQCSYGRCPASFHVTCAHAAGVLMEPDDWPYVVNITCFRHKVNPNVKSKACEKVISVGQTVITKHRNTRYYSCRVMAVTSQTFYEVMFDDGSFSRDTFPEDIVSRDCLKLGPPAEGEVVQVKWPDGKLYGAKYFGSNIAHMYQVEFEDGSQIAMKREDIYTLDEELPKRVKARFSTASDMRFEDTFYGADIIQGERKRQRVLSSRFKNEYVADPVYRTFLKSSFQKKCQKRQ

[6] = biological target: T1, Sentrin-specific protease 8; type: functional; remark: listed apart in the source
[7] = biological target: T2, Probable nicotinate-nucleotide adenylyltransferase; type: functional, Staphylococcus aureus subsp. aureus N315
Vero [8] = experiment: viability of Vero cells under compound – cytotoxicity control for flavivirus capping enzyme inhibitors (AID 588742); type: functional; conditions: Chlorocebus sabaeus
[9] = IC50 of Artemis nuclease activity blockers – biochemical, fluorescence intensity, dose response (AID 720701); type: functional;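 also: Artemis endonuclease enzyme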
Vero [10] = experiment: cells; type: functional, cell-based; conditions: Chlorocebus sabaeus
NS3 = NS3 (Hepatitis C virus, UniProt A3EZJ3); experiment: PubChem AID 2173; set-up: species or system Hepacivirus hominis
Sequence of NS3 (A3EZJ3 whole entry): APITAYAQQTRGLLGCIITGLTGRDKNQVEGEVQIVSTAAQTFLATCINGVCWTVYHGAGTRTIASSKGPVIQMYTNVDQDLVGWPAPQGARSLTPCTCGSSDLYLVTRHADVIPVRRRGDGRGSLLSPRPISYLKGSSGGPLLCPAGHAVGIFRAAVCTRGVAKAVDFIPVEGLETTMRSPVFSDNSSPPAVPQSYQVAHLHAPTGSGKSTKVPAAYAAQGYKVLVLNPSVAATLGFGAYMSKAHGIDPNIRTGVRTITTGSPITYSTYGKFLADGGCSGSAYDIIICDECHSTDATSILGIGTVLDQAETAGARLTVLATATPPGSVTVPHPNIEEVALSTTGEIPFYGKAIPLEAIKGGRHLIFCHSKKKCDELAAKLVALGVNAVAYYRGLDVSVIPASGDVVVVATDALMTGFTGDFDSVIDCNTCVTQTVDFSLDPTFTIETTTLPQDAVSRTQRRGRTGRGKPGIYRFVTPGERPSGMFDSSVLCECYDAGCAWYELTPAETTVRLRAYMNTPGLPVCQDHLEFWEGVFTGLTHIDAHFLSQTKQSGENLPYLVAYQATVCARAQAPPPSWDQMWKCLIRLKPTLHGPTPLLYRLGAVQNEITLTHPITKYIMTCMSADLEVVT

Vero [11] = experiment: cells; type: functional; conditions: Chlorocebus sabaeus
[12] = NIH-3T3 fibroblast cytotoxicity, dose response, cytotoxicity control, cell-based, fluorescence, Alamar Blue, secondary assay (AID 2327); type: functional;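 also: NIH-3T3 mouse fibroblasts cultured with fluconazole at 8 µg/mL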
[13] = fluconazole-exposed Candida albicans growth modulators – fluorescence, retest, confirmation (AID 2467); type: functional, cell-based
Kallikrein-7 = Kallikrein-7 (Homo sapiens, UniProt P49862); experiment: Fluorescence Intensity-based biochemical primary high throughput dose response assay to identify activators of kallikrein-7 (K7) zymogen.
Sequence of Kallikrein-7 (P49862 whole entry): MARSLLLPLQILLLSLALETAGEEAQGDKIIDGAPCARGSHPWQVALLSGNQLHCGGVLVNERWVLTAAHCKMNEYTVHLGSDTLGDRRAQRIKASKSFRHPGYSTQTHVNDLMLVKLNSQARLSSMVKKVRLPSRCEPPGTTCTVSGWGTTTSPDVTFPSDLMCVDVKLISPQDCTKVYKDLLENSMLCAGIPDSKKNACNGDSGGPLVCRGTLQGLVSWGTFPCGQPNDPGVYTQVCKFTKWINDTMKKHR

[14] = biological target: COUP transcription factor 2 (Homo sapiens, UniProt P24468); experiment: Luminescence-based cell-based high throughput dose response assay to identify inhibitors of COUP-TFII (NR2F2).; type: functional;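 also: HEK293 cells transiently cotransfected with COUP-TFII expression vector and reporter; luciferase reporter luminescence driven by COUP-TFII from the pX2-168 reporter plasmid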
Sequence of COUP transcription factor 2 (P24468 whole entry, the tested form may be a part): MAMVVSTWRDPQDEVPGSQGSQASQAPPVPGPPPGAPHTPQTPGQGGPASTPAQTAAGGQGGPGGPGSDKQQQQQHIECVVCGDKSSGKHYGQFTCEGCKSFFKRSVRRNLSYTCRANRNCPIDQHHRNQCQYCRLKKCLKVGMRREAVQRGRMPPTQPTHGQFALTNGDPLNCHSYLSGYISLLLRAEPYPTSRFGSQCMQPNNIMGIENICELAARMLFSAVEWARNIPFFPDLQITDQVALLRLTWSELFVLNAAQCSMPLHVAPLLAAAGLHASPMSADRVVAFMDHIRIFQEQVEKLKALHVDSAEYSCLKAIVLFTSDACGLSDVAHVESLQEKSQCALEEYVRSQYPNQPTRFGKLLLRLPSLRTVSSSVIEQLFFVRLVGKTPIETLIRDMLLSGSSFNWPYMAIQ

[15] = biological target: Oxysterols receptor LXR-beta (Homo sapiens, UniProt P55055); type: functional, cell-based;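 also: agonist activity at LXR measured by a cell-based luminescence readout across a dose range, run as a counterscreen for daf-12 agonists; HEK293 cells with Gal4-LXR fusion and GAL4-driven luciferase reporter; potency for activation of Gal4-LXR reporter so compounds are agonists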
Sequence of Oxysterols receptor LXR-beta (P55055 whole entry, the tested form may be a part): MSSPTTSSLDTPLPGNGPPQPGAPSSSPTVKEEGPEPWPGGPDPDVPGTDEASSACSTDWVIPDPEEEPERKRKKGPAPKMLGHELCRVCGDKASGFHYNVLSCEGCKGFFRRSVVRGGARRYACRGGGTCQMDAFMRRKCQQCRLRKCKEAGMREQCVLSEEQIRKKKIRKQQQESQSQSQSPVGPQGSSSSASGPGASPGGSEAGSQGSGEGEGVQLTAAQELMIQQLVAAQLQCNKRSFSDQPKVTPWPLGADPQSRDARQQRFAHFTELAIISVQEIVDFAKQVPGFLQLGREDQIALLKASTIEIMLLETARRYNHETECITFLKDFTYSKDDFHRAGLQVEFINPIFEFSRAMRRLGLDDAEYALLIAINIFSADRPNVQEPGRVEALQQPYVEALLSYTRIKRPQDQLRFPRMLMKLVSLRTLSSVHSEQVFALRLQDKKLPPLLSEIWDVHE

Paired box protein Pax-8 = Paired box protein Pax-8 (Homo sapiens, UniProt Q06710); experiment: PAX8 transcriptional activity inhibition in RMG-I – RMG-I cells, luciferase, cherry-pick, dose response (AID 687027); type: functional, cell-based;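 also: luciferase reporter driven by Pax8 target thyroperoxidase promoter measured by SteadyGlo luminescence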
Sequence of Paired box protein Pax-8 (Q06710 whole entry): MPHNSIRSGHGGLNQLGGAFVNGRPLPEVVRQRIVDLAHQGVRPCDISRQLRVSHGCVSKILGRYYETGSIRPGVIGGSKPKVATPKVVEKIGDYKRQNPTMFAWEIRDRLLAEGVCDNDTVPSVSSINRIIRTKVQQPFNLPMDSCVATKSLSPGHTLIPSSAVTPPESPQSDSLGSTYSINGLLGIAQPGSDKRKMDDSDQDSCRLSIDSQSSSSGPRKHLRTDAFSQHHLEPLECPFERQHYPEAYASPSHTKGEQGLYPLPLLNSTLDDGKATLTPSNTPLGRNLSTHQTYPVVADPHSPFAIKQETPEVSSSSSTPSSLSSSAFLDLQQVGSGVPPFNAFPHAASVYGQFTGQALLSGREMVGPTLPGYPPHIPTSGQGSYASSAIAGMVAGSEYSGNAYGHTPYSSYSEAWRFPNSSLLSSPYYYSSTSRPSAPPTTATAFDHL

[16] = general cell-killing toxicity readout – plate reader, dry powder samples, cytotoxicity control for PAX8 inhibitor project, dose response (AID 743021); type: functional, cell-based
[17] = reduced cellular PGC1a acetyl-lysine signal – cell-based, cherry-picked samples, dose response (AID 720514); type: functional;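 also: potency may reflect raised or lowered acetylation signal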
HEK293 = experiment: viability loss in HEK293T cells – cell-based, ATP luminescence, cherry-pick samples, cytotoxicity control, dose response (AID 687005); type: functional; conditions: Homo sapiens;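 also: cells exposed to compound for 48 hours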
[18] = HEK293 Cytotoxicity Assay Measured in Cell-Based System Using Plate Reader - 7071-01_Inhibitor_Dose_CherryPick_Activity_Set2.; type: functional
[19] = toxicity toward immortalized ovarian surface epithelium – cell-based, plate reader, dry powder samples, cytotoxicity control for PAX8 inhibitor project, dose response (AID 743045); type: functional
[20] = OVCAR-3 cell viability loss – plate reader, dry powder samples, PAX8 inhibitor project, dose response (AID 743044); type: functional, cell-based
[21] = OVCAR8 cell viability loss – plate reader, dry powder samples, PAX8 project, dose response (AID 743197); type: functional, cell-based; conditions: OVCAR-8
[22] = A2780 cell killing – plate reader, dry powder samples, cytotoxicity control, dose response (AID 743046); type: functional, cell-based
[23] = IGROV1 cell killing – plate reader, dry powder samples, PAX8 inhibitor project, dose response (AID 743043); type: functional, cell-based; conditions: IGROV-1
[24] = IC50 of insulin release inhibition, rat insulinoma INS-1E line, 5 mM glucose, cell-based (AID 1117331); type: functional
[25] = Potency on glucagon-like peptide 1 release, dose-response in NCI-H716 cell line, half maximal inhibitory concentration (AID 1117344); type: functional, cell-based
[26] = glucagon-like peptide-1 release potency in STC-1, concentration-response, half-maximal inhibitory concentration in the STC-1 line (AID 1117345); type: functional, cell-based

Cc1cc(OCC(=O)N(C)Cc2ccccc2)ccc1Cl
AC50 (INS1): > 260 µM (inactive) | IC50 (Beta-galactosidase): > 80 µM (inactive)

O=C(CSCc1ccccc1)NNC(=S)Nc1cccc(Cl)c1Cl
IC50 [1]: > 122 µM (inactive)

COc1ccc(OCC(=O)N2CCN(C/C=C/c3ccccc3)CC2)cc1
IC50 (Beta-galactosidase): > 80 µM (inactive)

Cc1[nH][nH]c(=O)c1C(c1c(C)[nH][nH]c1=O)c1cn(Cc2cccc3ccccc23)c2ccccc12
IC50 [2]: 3.36 µM (active) | IC50 [3]: 14.7 µM (active) | IC50 [4]: 19.3 µM (active) | AC50 [5]: 11.4 µM (active) | IC50 [6]: 5.32 µM (active) | IC50 [7]: 6.89 µM (active)

Cc1n[nH]c(O)c1C(c1c(C)n[nH]c1O)c1cn(Cc2cccc3ccccc23)c2ccccc12
CC50 (Vero [8]): > 40 µM (active) | IC50 [9]: 12.5 µM (active)

CCCCOc1ccccc1C(=O)NNC(=S)NC(=O)c1ccccc1[N+](=O)[O-]
IC50 (Vero [10]): > 12.5 µM (active) | IC50 (NS3): 12.2 µM (not active) | CC50 (Vero [11]): 15.8 µM (active) | IC50 [1]: 20.8 µM (inactive) | EC50 [12]: > 150 µM (inactive) | EC50 [13]: > 38 µM (not active)

CSc1ccc(C2NC(=O)c3ccccc3N2)cc1 (configuration not stated)
EC50 (Kallikrein-7): > 69.5 µM (inactive)

COc1ccc(NC(=O)C2Cc3c(-c4ccc5c(c4)OCO5)ccnc3O2)cc1OC (configuration not stated)
IC50 [14]: 8.73 µM (active)

OC(c1ccccc1)c1nc(-c2cnc3ccccc3c2)cs1 (configuration not stated)
EC50 [15]: > 67.6 µM (inactive)

O=C(Nc1ccc(C(F)(F)F)cc1)N1C[C@@H]2N[C@H](C1)[C@@H]2c1ccc(-c2ccccc2)cc1
AC50 (Paired box protein Pax-8): 8.62 µM (active) | AC50 [16]: 33.8 µM (active) | AC50 [17]: 9.06 µM (active)

Cc1ccc(S(=O)(=O)N(C)C[C@@H]2Oc3ccc(NS(=O)(=O)c4ccc(Cl)cc4)cc3CC(=O)N([C@@H](C)CO)C[C@@H]2C)cc1
AC50 (HEK293): 28 µM (active) | AC50 [18]: 28 µM (active)

CC(C)CC#Cc1ccc2c(c1)O[C@@H](CN(C)Cc1ccncc1)[C@H](C)CN([C@H](C)CO)S2(=O)=O
AC50 (Paired box protein Pax-8): 4.41 µM (active) | AC50 [19]: 48.9 µM (active) | AC50 [20]: 40.7 µM (active) | AC50 [21]: 32.6 µM (active)

Fc1cccc(CN2C[C@@H]3N[C@H](C2)[C@@H]3c2ccc(-c3ccccc3)cc2)c1
AC50 [20]: 31 µM (active) | AC50 [22]: 15.1 µM (active) | AC50 [21]: 39.9 µM (active) | AC50 [23]: 27.7 µM (active) | AC50 [17]: 7.52 µM (active)

Cc1c(N)cccc1C(F)(F)F
IC50 [24]: > 33.3 µM (inactive) | IC50 [25]: > 40 µM (inactive) | IC50 [26]: > 40 µM (inactive)

CC/N=c1\scc(-c2ccc3c(c2)NC(=O)CO3)n1N=C1CCCC1
IC50 [14]: 8.75 µM (active) | EC50 [12]: > 160 µM (inactive) | EC50 [13]: 2.31 µM (active)

COc1cc(/C=N/NC(=O)c2c(C)nc3ccc(Cl)cn23)cc(OC)c1OC
EC50 (Kallikrein-7): 29 µM (inactive)
